#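 Briefly, cells in 96-well plates were exposed to five compound concentrations for 48 h, and endpoints were estimated by linear interpolation. Abbreviation: GI50, concentration required for 50% inhibition of growth.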 Calls of active or inactive are those of the source. Rule as the data show it: active = GI50 up to about 1.1 µM and inactive = higher.
# How the values were obtained:
# Assay in all cases: inhibition of tumour cell growth, NCI panel, 48 h
# [1] = system: CCRF-CEM
# [2] = system: HOP-92
# [3] = system: OVCAR-8
# [4] = system: NCI-H460
# [5] = system: EKVX
# [6] = system: HCT-116
# [7] = system: SW-620
# [8] = system: A549
# [9] = system: NCI-H522
# [10] = system: OVCAR-4
# [11] = system: UACC-257
# [12] = system: U-251
# [13] = system: TK-10
# [14] = system: SF-268
# [15] = system: SNB-19
# [16] = system: Malme-3M
# [17] = system: ACHN
# [18] = system: M14
# [19] = system: LOX IMVI
# [20] = system: RXF 393
SMILES,GI50 [1],GI50 [2],GI50 [3],GI50 [4],GI50 [5],GI50 [6],GI50 [7],GI50 [8],GI50 [9],GI50 [10],GI50 [11],GI50 [12],GI50 [13],GI50 [14],GI50 [15],GI50 [16],GI50 [17],GI50 [18],GI50 [19],GI50 [20]
O=C(Nc1ccc(Cl)cc1)c1cc(S(=O)(=O)Nc2n[nH]c(=O)[nH]2)c(SSc2cc(Cl)c(C(=O)Nc3ccc(Cl)cc3)cc2S(=O)(=O)Nc2n[nH]c(=O)[nH]2)cc1Cl,> 100 µM (inactive),> 100 µM (inactive),> 100 µM (inactive),> 100 µM (inactive),> 100 µM (inactive),> 100 µM (inactive),> 100 µM (inactive),> 100 µM (inactive),> 100 µM (inactive),> 100 µM (inactive),> 100 µM (inactive),> 100 µM (inactive),> 100 µM (inactive),> 100 µM (inactive),> 100 µM (inactive),> 100 µM (inactive),> 100 µM (inactive),> 100 µM (inactive),> 100 µM (inactive),
CC(C)c1ccc(Cc2ccc(C(C)C)c(NC(=O)C(=O)Cc3cnc4ccccc4n3)c2C(C)C)c(C(C)C)c1NC(=O)C(=O)Cc1cnc2ccccc2n1,> 100 µM (inactive),12.4 µM (inactive),> 100 µM (inactive),> 100 µM (inactive),> 100 µM (inactive),> 100 µM (inactive),> 100 µM (inactive),> 100 µM (inactive),,> 100 µM (inactive),> 100 µM (inactive),> 100 µM (inactive),> 100 µM (inactive),,> 100 µM (inactive),> 100 µM (inactive),> 100 µM (inactive),> 100 µM (inactive),> 100 µM (inactive),
CC1(C)OCC2OC3([C@@H]4OC(C)(C)O[C@H]4CO)OC(C)(C)OC3C2O1 (stereo partly specified),> 100 µM (inactive),> 100 µM (inactive),> 100 µM (inactive),> 100 µM (inactive),> 100 µM (inactive),> 100 µM (inactive),> 100 µM (inactive),> 100 µM (inactive),,> 100 µM (inactive),> 100 µM (inactive),> 100 µM (inactive),,,> 100 µM (inactive),,> 100 µM (inactive),> 100 µM (inactive),> 100 µM (inactive),> 100 µM (inactive)
O=C1Cc2ccccc2N1/N=C\c1ccc([N+](=O)[O-])cc1,> 100 µM (inactive),> 100 µM (inactive),> 100 µM (inactive),> 100 µM (inactive),> 100 µM (inactive),> 100 µM (inactive),> 100 µM (inactive),> 100 µM (inactive),,> 100 µM (inactive),> 100 µM (inactive),> 100 µM (inactive),> 100 µM (inactive),> 100 µM (inactive),> 100 µM (inactive),> 100 µM (inactive),> 100 µM (inactive),> 100 µM (inactive),> 100 µM (inactive),
CN(/N=C/c1ccccc1C(=O)O)C1=NCCCCN1,> 100 µM (inactive),> 100 µM (inactive),> 100 µM (inactive),> 100 µM (inactive),> 100 µM (inactive),> 100 µM (inactive),> 100 µM (inactive),> 100 µM (inactive),19.1 µM (inactive),> 100 µM (inactive),> 100 µM (inactive),> 100 µM (inactive),> 100 µM (inactive),> 100 µM (inactive),> 100 µM (inactive),> 100 µM (inactive),> 100 µM (inactive),> 100 µM (inactive),> 100 µM (inactive),
N#CC(C(=O)CCC(=O)Nc1cccc(C(F)(F)F)c1)c1ccc(Cl)cc1 (stereo unspecified),> 100 µM (inactive),> 100 µM (inactive),> 100 µM (inactive),> 100 µM (inactive),> 100 µM (inactive),> 100 µM (inactive),> 100 µM (inactive),> 100 µM (inactive),> 100 µM (inactive),> 100 µM (inactive),> 100 µM (inactive),> 100 µM (inactive),> 100 µM (inactive),> 100 µM (inactive),> 100 µM (inactive),> 100 µM (inactive),> 100 µM (inactive),> 100 µM (inactive),> 100 µM (inactive),
CCOC(=O)[C@]12C3C=CC(C3)C1C(=O)C1OC12 (stereo partly specified),> 100 µM (inactive),0.109 µM (active),> 100 µM (inactive),> 100 µM (inactive),> 100 µM (inactive),> 100 µM (inactive),> 100 µM (inactive),> 100 µM (inactive),> 100 µM (inactive),> 100 µM (inactive),> 100 µM (inactive),> 100 µM (inactive),> 100 µM (inactive),> 100 µM (inactive),> 100 µM (inactive),> 100 µM (inactive),> 100 µM (inactive),,> 100 µM (inactive),
